{
  "source": "paper PMC11596928",
  "about": "“Substrate-Induced Structural Dynamics and Evolutionary Linkage of Siderophore-Iron ABC Transporters of Mycobacterium tuberculosis” (Medicina, 2024)",
  "molecular_target": "ATPase II (rATPase II), ATPase domain of IrtB (Mycobacterium tuberculosis, UniProt P9WQJ7)",
  "sequence (P9WQJ7 313-579)": "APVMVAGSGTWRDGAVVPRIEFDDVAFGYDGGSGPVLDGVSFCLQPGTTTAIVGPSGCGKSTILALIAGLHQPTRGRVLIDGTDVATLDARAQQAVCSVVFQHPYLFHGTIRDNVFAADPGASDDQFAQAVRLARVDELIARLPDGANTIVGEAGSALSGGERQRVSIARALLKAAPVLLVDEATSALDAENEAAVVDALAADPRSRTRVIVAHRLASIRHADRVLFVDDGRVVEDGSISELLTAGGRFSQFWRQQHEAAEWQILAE",
  "data": [
    {"compound": "Nc1ncnc2c1ncn2[C@@H]1O[C@H](COP(=O)(O)OP(=O)(O)OP(=O)(O)O)[C@@H](O)[C@H]1O", "note": "[ATP]", "values": [
      {"measurement": "analytical gel filtration (ATP-dependent dimerization)", "value": "ATPase II (the ATPase belonging to IrtB) dimers were captured as stable dimers"}
    ]}
  ]
}
